For the assay, the target named is T1, delta-5-desaturase (Rattus norvegicus, UniProt Q920R3).
T1 construct: the microsomal fraction of a rat river (10 μl), which had been diluted to 3 mg/ml; from tissue; host or cells: rat liver microsomal fraction
Put plainly: Inhibitory activity on delta-5-desaturase (rat liver microsomal fraction, 14C-eicosatrienoic acid, TLC). The class given is biochemical. The following applies: test compound at 10 μM, room temperature, 120 minutes. A digest of the protocol:
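Rat liver microsomes (3 mg/ml before addition) incubated with test compound at 10 μM, NADH, ATP, CoA and 14C-eicosatrienoic acid in phosphate buffer pH 7.4 with BSA and glutathione, 120 min at room temperature. Lipids saponified, extracted, separated by reverse-phase TLC and imaged; % inhibition reported.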

T1 sequence (Q920R3 whole entry): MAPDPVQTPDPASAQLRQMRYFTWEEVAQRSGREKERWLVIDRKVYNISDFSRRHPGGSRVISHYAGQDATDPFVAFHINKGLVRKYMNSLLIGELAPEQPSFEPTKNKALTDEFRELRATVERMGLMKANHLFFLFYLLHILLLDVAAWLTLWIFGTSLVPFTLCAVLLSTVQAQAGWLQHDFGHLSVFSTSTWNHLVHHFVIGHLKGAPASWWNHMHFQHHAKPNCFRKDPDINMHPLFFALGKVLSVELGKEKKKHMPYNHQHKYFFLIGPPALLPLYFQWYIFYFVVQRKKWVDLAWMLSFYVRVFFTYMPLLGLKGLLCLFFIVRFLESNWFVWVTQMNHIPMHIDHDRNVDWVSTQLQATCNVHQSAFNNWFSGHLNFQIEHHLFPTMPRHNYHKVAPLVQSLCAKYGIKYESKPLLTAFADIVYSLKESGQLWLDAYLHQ

The inhibition is the relative decrease from the control value, in per cent. As for `CCSc1nc2[nH]ccc2c(=O)n1-c1ccc(OCC(F)(F)C(F)(F)F)cc1` [Example 249, 2-(Ethylsulfanyl)-3-[4-(2,2,3,3,3-pentafluoropropoxy)phenyl]-3,7-dihydro-4H-pyrrolo[2,3-d]pyrimidin-4-one], the inhibition at 10 µM worked out at 100%.

As for `CC(C)Sc1nc2[nH]ccc2c(=O)n1-c1ccc(OCC(F)(F)F)cc1` [Example 251, 2-[(1-Methylethyl)sulfanyl]-3-[4-(2,2,2-trifluoroethoxy)phenyl]-3,7-dihydro-4H-pyrrolo[2,3-d]pyrimidin-4-one], the inhibition at 10 µM turned out to be 97%.

Take `CCCCSc1nc2[nH]ccc2c(=O)n1-c1ccc(OCC(F)(F)F)cc1` [Example 252, 2-(Butylsulfanyl)-3-[4-(2,2,2-trifluoroethoxy)phenyl]-3,7-dihydro-4H-pyrrolo[2,3-d]pyrimidin-4-one]: the inhibition at 10 µM was found to be 96%.

On to `O=c1c2cc[nH]c2nc(SC(F)(F)F)n1-c1ccc(OCC(F)(F)F)cc1` [Example 253, 3-[4-(2,2,2-Trifluoroethoxy)phenyl]-2-[(trifluoromethyl)sulfanyl]-3,7-dihydro-4H-pyrrolo[2,3-d]pyrimidin-4-one], for which the inhibition at 10 µM stood at 98%.

On to `CCSc1nc2[nH]ccc2c(=O)n1-c1ccc(OC(F)(F)F)cc1` [Example 254, 2-(Ethylsulfanyl)-3-[4-(trifluoromethoxy)phenyl]-3,7-dihydro-4H-pyrrolo[2,3-d]pyrimidin-4-one], for which the inhibition at 10 µM was found to be 98%.

In the case of `O=c1c2cc[nH]c2nc(SCC2CC2)n1-c1ccc(OCC(F)(F)F)cc1` [Example 255, 2-[(Cyclopropylmethyl)sulfanyl]-3-[4-(2,2,2-trifluoroethoxy)phenyl]-3,7-dihydro-4H-pyrrolo[2,3-d]pyrimidin-4-one], the inhibition at 10 µM worked out at 101%.

On to `O=c1c2cc[nH]c2nc(SC2CC2)n1-c1ccc(OCC(F)(F)F)cc1` [Example 256, 2-(Cyclopropylsulfanyl)-3-[4-(2,2,2-trifluoroethoxy)phenyl]-3,7-dihydro-4H-pyrrolo[2,3-d]pyrimidin-4-one], for which the inhibition at 10 µM was 104%.

As to `O=c1c2cc[nH]c2nc(OCC(F)(F)F)n1-c1ccc(OCC(F)(F)F)c(F)c1` [Example 264, 3-[3-Fluoro-4-(2,2,2-trifluoroethoxy)phenyl]-2-(2,2,2-trifluoroethoxy)-3,7-dihydro-4H-pyrrolo[2,3-d]pyrimidin-4-one], the inhibition at 10 µM amounted to 101%.

In the case of `CCSc1nc2c(c(=O)n1-c1ccc(OCC(F)(F)F)cc1)CC(=O)N2` [Example 265, 2-(Ethylsulfanyl)-3-[4-(2,2,2-trifluoroethoxy)phenyl]-5,7-dihydro-3H-pyrrolo[2,3-d]pyrimidine-4,6-dione], the inhibition at 10 µM was 98%.

`CSc1nc2c(c(=O)n1-c1ccc(OCC(F)(F)F)cc1)CC(=O)N2` [Example 267, 2-(Methylsulfanyl)-3-[4-(2,2,2-trifluoroethoxy)phenyl]-5,7-dihydro-3H-pyrrolo[2,3-d]pyrimidine-4,6-dione]: the inhibition at 10 µM was determined as 100%.

With `CCSc1nc2c(c(=O)n1-c1ccc(OCC(F)(F)C(F)(F)F)cc1)CC(=O)N2` [Example 269, 2-(Ethylsulfanyl)-3-[4-(2,2,3,3,3-pentafluoropropoxy)phenyl]-5,7-dihydro-3H-pyrrolo[2,3-d]pyrimidine-4,6-dione], the inhibition at 10 µM stood at 99%.

Turning to `CCSc1nc2c(c(=O)n1-c1ccc(OCC(F)F)cc1)CC(=O)N2` [Example 270, 3-[4-(2,2-Difluoroethoxy)phenyl]-2-(ethylsulfanyl)-5,7-dihydro-3H-pyrrolo[2,3-d]pyrimidine-4,6-dione], the inhibition at 10 µM was determined as 99%.

With `O=C1Cc2c(nc(OCC(F)F)n(-c3ccc(OCC(F)(F)F)cc3)c2=O)N1` [Example 275, 2-(2,2-Difluoroethoxy)-3-[4-(2,2,2-trifluoroethoxy)phenyl]-5,7-dihydro-3H-pyrrolo[2,3-d]pyrimidine-4,6-dione], the inhibition at 10 µM was determined as 99%.

With `CCOc1nc2c(c(=O)n1-c1ccc(OCC(F)(F)C(F)(F)F)cc1)CC(=O)N2` [Example 277, 2-Ethoxy-3-[4-(2,2,3,3,3-pentafluoropropoxy)phenyl]-5,7-dihydro-3H-pyrrolo[2,3-d]pyrimidine-4,6-dione], the inhibition at 10 µM came out at 94%.

Consider `O=c1c2cc[nH]c2nc(OC2CCC2)n1-c1ccc(OCC(F)(F)F)cc1` [Example 283, 2-(Cyclobutyloxy)-3-[4-(2,2,2-trifluoroethoxy)phenyl]-3,7-dihydro-4H-pyrrolo[2,3-d]pyrimidin-4-one], for which the “Inhibitory activity at 10 μM (%)” value was 101%.

Take `CC(C)Sc1nc2c(c(=O)n1-c1ccc(OCC(F)(F)F)cc1)CC(=O)N2` [Example 285, 2-[(1-Methylethyl)sulfanyl]-3-[4-(2,2,2-trifluoroethoxy)phenyl]-5,7-dihydro-3H-pyrrolo[2,3-d]pyrimidine-4,6-dione]: the inhibition at 10 µM stood at 96%.

On to `CCCSc1nc2c(c(=O)n1-c1ccc(OCC(F)(F)F)cc1)CC(=O)N2` [Example 286, 2-(Propylsulfanyl)-3-[4-(2,2,2-trifluoroethoxy)phenyl]-5,7-dihydro-3H-pyrrolo[2,3-d]pyrimidine-4,6-dione], for which the inhibition at 10 µM came to 102%.

Turning to `CCCCOc1nc2[nH]ccc2c(=O)n1-c1ccc(OCC(F)(F)F)cc1` [Example 287, 2-Butoxy-3-[4-(2,2,2-trifluoroethoxy)phenyl]-3,7-dihydro-4H-pyrrolo[2,3-d]pyrimidin-4-one], the “Inhibitory activity at 10 μM (%)” value worked out at 98%.

For `O=c1c2cc[nH]c2nc(OCC2CC2)n1-c1ccc(OCC(F)(F)F)cc1` [Example 289, 2-(Cyclopropylmethoxy)-3-[4-(2,2,2-trifluoroethoxy)phenyl]-3,7-dihydro-4H-pyrrolo[2,3-d]pyrimidin-4-one], the “Inhibitory activity at 10 μM (%)” value was found to be 101%.

As to `O=C1Cc2c(nc(SC3CC3)n(-c3ccc(OCC(F)(F)F)cc3)c2=O)N1` [Example 291, 2-(Cyclopropylsulfanyl)-3-[4-(2,2,2-trifluoroethoxy)phenyl]-5,7-dihydro-3H-pyrrolo[2,3-d]pyrimidine-4,6-dione], the inhibition at 10 µM stood at 99%.

Turning to `O=C1Cc2c(nc(SCC3CCC3)n(-c3ccc(OCC(F)(F)F)cc3)c2=O)N1` [Example 296, 2-[(Cyclobutylmethyl)sulfanyl]-3-[4-(2,2,2-trifluoroethoxy)phenyl]-5,7-dihydro-3H-pyrrolo[2,3-d]pyrimidine-4,6-dione], the inhibition at 10 µM was 101%.

With `O=C1Cc2c(nc(SCC(F)(F)F)n(-c3ccc(OCC(F)(F)F)cc3)c2=O)N1` [Example 298, 3-[4-(2,2,2-Trifluoroethoxy)phenyl]-2-[(2,2,2-trifluoroethyl)sulfanyl]-5,7-dihydro-3H-pyrrolo[2,3-d]pyrimidine-4,6-dione], the inhibition at 10 µM was 101%.

Take `COCCOCCCSc1nc2c(c(=O)n1-c1ccc(OCC(F)(F)F)cc1)CC(=O)N2` [Example 299, 2-{[3-(2-Methoxyethoxy)propyl]sulfanyl}-3-[4-(2,2,2-trifluoroethoxy)phenyl]-5,7-dihydro-3H-pyrrolo[2,3-d]pyrimidine-4,6-dione]: the inhibition at 10 µM amounted to 100%.

With `CCSc1nc2c(c(=O)n1-c1ccc(OCC3CC3)cc1)CC(=O)N2` [Example 300, 3-[4-(Cyclopropylmethoxy)phenyl]-2-(ethylsulfanyl)-5,7-dihydro-3H-pyrrolo[2,3-d]pyrimidine-4,6-dione], the inhibition at 10 µM amounted to 101%.

Regarding `CS(=O)(=O)CCCSc1nc2c(c(=O)n1-c1ccc(OCC3CC3)cc1)CC(=O)N2` [Example 301, 3-[4-(Cyclopropylmethoxy)phenyl]-2-{[3-(methylsulfonyl)propyl]sulfanyl}-5,7-dihydro-3H-pyrrolo[2,3-d]pyrimidine-4,6-dione], the inhibition at 10 µM stood at 99%.

For `CCOCCCSc1nc2c(c(=O)n1-c1ccc(OCC(F)(F)F)cc1)CC(=O)N2` [Example 302, 2-[(3-Ethoxypropyl)sulfanyl]-3-[4-(2,2,2-trifluoroethoxy)phenyl]-5,7-dihydro-3H-pyrrolo[2,3-d]pyrimidine-4,6-dione], the inhibition at 10 µM stood at 94%.

For `CSc1nc2c(c(=O)n1-c1ccc(OCC(F)(F)C(F)(F)F)cc1)CC(=O)N2` [Example 303, 2-(Methylsulfanyl)-3-[4-(2,2,3,3,3-pentafluoropropoxy)phenyl]-5,7-dihydro-3H-pyrrolo[2,3-d]pyrimidine-4,6-dione], the inhibition at 10 µM was 98%.

As for `O=C1Cc2c(nc(OCC(F)(F)F)n(-c3ccc(OCC(F)(F)C(F)(F)F)cc3)c2=O)N1` [Example 306, 3-[4-(2,2,3,3,3-Pentafluoropropoxy)phenyl]-2-(2,2,2-trifluoroethoxy)-5,7-dihydro-3H-pyrrolo[2,3-d]pyrimidine-4,6-dione], the inhibition at 10 µM came out at 99%.

`CCSc1nc2c(c(=O)n1-c1ccc(OCC(F)(F)F)c(F)c1)CC(=O)N2` [Example 307, 2-(Ethylsulfanyl)-3-[3-fluoro-4-(2,2,2-trifluoroethoxy)phenyl]-5,7-dihydro-3H-pyrrolo[2,3-d]pyrimidine-4,6-dione]: the inhibition at 10 µM is 99%.

For `O=C1Cc2c(nc(OCC(F)(F)F)n(-c3ccc(OCC(F)(F)F)c(F)c3)c2=O)N1` [Example 309, 3-[3-Fluoro-4-(2,2,2-trifluoroethoxy)phenyl]-2-(2,2,2-trifluoroethoxy)-5,7-dihydro-3H-pyrrolo[2,3-d]pyrimidine-4,6-dione], the inhibition at 10 µM was 98%.

Turning to `CC(C)Oc1nc2c(c(=O)n1-c1ccc(OCC(F)(F)C(F)(F)F)cc1)CC(=O)N2` [Example 310, 2-(1-Methylethoxy)-3-[4-(2,2,3,3,3-pentafluoropropoxy)phenyl]-5,7-dihydro-3H-pyrrolo[2,3-d]pyrimidine-4,6-dione], the inhibition at 10 µM is 99%.

In the case of `O=C1Cc2c(nc(Oc3ccc(F)cc3)n(-c3ccc(OCC(F)(F)C(F)(F)F)cc3)c2=O)N1` [Example 311, 2-(4-Fluorophenoxy)-3-[4-(2,2,3,3,3-pentafluoropropoxy)phenyl]-5,7-dihydro-3H-pyrrolo[2,3-d]pyrimidine-4,6-dione], the inhibition at 10 µM stood at 98%.

The values are drawn from patent US20100190747A1, “Fused ring compound and use thereof” (priority 2009, published 2010).
